Measured values: ChEMBL document CHEMBL1148160, “Planaxool: a novel cytotoxic cembranoid form the mollusk Planaxis sulcatus” (1993)

System: L1210
Test: Cytotoxicity against mouse L1210 cells
Type: functional

In the case of `C/C1=C\CC[C@]2(C)O[C@H]([C@@H]3OC(=O)[C@]4(OO)CCO[C@@H]2C[C@H]34)[C@H](C)CCC1` [PLANAXOOL], the IC100 is reported as 2.4 µg/mL.
